Values quoted from earlier work in PubChem BioAssay AID1259409 (Chemical Carcinogenesis Research Information System (CCRIS), 2018).

Test system: rodent chemically induced tumor inhibition, incidence and multiplicity
Assay: CCRIS tumor inhibitor studies
Conditions: Promoter: NONE USED

**Q.** What does the source list for `C=C(C)[C@H]1CC=C(C)CC1`?
**A.** tumour outcome (control, treated, inhibition, significance) (Carcinogen: 4-(METHYLNITROSAMINO)-1-(3-PYRIDYL)-1-BUTANONE, 64019-91-4, Dose [Inhibitor]: 0, 25 MG LIMONENE OIL 0.2 ML COTTONSEED OIL 1 HR PRIOR TO EACH CARCINOGEN DOSE (STUDY DURATION: 28 WK), Route [Inhibitor]: INTRAGASTRIC, Species: MOUSE, Strain/Sex: STRAIN-A/FEMALE, Target Tissue: Type of Lesion: FORESTOMACH: PAPILLOMA, Dose [Carcinogen]: 0.5 MG IN O.1 ML TRICAPRYLIN 2/WK FOR 8 WK): 17%, 0%, 100%,; tumour outcome (control, treated, inhibition, significance) (Carcinogen: 4-(METHYLNITROSAMINO)-1-(3-PYRIDYL)-1-BUTANONE, 64091-91-4, Dose [Inhibitor]: 0, 0.63% IN DIET FOR 17 WK BEGINNING 1 WK PRIOR TO CARCINOGEN DOSE (STUDY DURATION: 17 WK), Route [Inhibitor]: ORAL, Species: MOUSE, Strain/Sex: STRAIN-A/FEMALE, Target Tissue: Type of Lesion: LUNG: ADENOMA, Dose [Carcinogen]: 10 UMOL IN 0.1 ML SALINE ONCE): 100%, 96%, 4%, not significant; tumour outcome (control, treated, inhibition, significance) (Carcinogen: 4-(METHYLNITROSAMINO)-1-(3-PYRIDYL)-1-BUTANONE, 64091-91-4, Dose [Inhibitor]: 0, 25 MG IN 0.2 ML COTTONSEED OIL 1 HR PRIOR TO EACH CARCINOGEN DOSE (STUDY DURATION: 28 WK), Route [Inhibitor]: INTRAGASTRIC, Species: MOUSE, Strain/Sex: STRAIN-A/FEMALE, Target Tissue: Type of Lesion: FORESTOMACH: PAPILLOMA, Dose [Carcinogen]: 0.5 MG IN 0.1 ML TRICAPRYLIN 2/WK FOR 8 WK): 90%, 0%, 100%, p<0.001; tumour outcome (control, treated, inhibition, significance) (Carcinogen: 4-(METHYLNITROSAMINO)-1-(3-PYRIDYL)-1-BUTANONE, 64091-91-4, Dose [Inhibitor]: O, 25 MG LIMONENE FROM LEMON OIL IN 0.2 ML COTTONSEED OIL 1 HR PRIOR TO EACH CARCINOGEN DOSE (STUDY DURATION: 28 WK), Route [Inhibitor]: INTRAGASTRIC, Species: MOUSE, Strain/Sex: STRAIN-A/FEMALE, Target Tissue: Type of Lesion: FORESTOMACH: PAPILLOMA, Dose [Carcinogen]: 0.5 MG IN OIL ML TRICAPRYLIN 2/WK FOR 8 WK): 17%, 0%, 100%, not calculated; tumour outcome (control, treated, inhibition, significance) (Carcinogen: 7,12-DIMETHYLBENZ[A]ANTHRACENE, 57-97-6, Dose [Inhibitor]: 0, 1% IN DIET FOR 3 WK BEGINNING 2 WK PRIOR TO CARCINOGEN DOSE (STUDY DURATION: 20 WK), Route [Inhibitor]: ORAL, Species: RAT, Strain/Sex: WISTAR/FEMALE, Target Tissue: Type of Lesion: MAMMARY GLAND: CARCINOMA, Dose [Carcinogen]: 50 MG/KG IN SESAME OIL ONCE): 98%, 96%, 2%, not significant; tumour outcome (control, treated, inhibition, significance) (Carcinogen: 7,12-DIMETHYLBENZ[A]ANTHRACENE, 57-97-6, Dose [Inhibitor]: 0, 5% IN DIET BEGINNING POST CARCINOGEN TREATMENT AND CONTINUING FOR 25 WK (STUDY DURATION: 25 WK), Route [Inhibitor]: ORAL, Species: RAT, Strain/Sex: SPRAGUE-DAWLEY/FEMALE, Target Tissue: Type of Lesion: MAMMARY GLAND: TUMOR, Dose [Carcinogen]: 65 MG/KG IN SESAME OIL ONCE): 100%, 97%, 3%, not significant; tumour outcome (control, treated, inhibition, significance) (Carcinogen: 7,12-DIMETHYLBENZ[A]ANTHRACENE, 57-97-6, Dose [Inhibitor]: 0, 5% IN DIET FOR 1 WK PRIOR TO AND 1 WK POST CARCINOGEN TREATMENT (STUDY DURATION: 25 WK), Route [Inhibitor]: ORAL, Species: RAT, Strain/Sex: SPRAGUE-DAWLEY/FEMALE, Target Tissue: Type of Lesion: MAMMARY GLAND: TUMOR, Dose [Carcinogen]: 65 MG/KG IN SESAME OIL ONCE): 100%, 88%, 12%, not significant; tumour outcome (control, treated, inhibition, significance) (Carcinogen: 7,12-DIMETHYLBENZ[A]ANTHRACENE, 57-97-6, Dose [Inhibitor]: 0, 36 MMOL/KG IN DIET FOR 24 WK BEGINNING 2 WK PRIOR TO CARCINOGEN DOSE (STUDY DURATION: 24 WK), Route [Inhibitor]: ORAL, Species: RAT, Strain/Sex: SPRAGUE-DAWLEY/FEMALE, Target Tissue: Type of Lesion: MAMMARY GLAND: TUMOR, Dose [Carcinogen]: 65 MG/KG BW ONCE): 91%, 75%, 18%, not significant; tumour outcome (control, treated, inhibition, significance) (Carcinogen: BENZO[A]PYRENE, 50-32-8, Dose [Inhibitor]: 10 MG IN 0.1 ML ACETONE 3/WK ADMINISTERED SIMULTANEOUSLY WITH CARCINOGEN FOR DURATION OF STUDY (STUDY DURATION: 440 D), Route [Inhibitor]: DERMAL, Species: MOUSE, Strain/Sex: ICR/FEMALE, Target Tissue: Type of Lesion: SKIN: PAPILLOMA, Dose [Carcinogen]: 5 UG IN 0.1 ML ACETONE 3/WK FOR DURATION OF STUDY): 16/50 (32%), 13/50 (26%), 19%, not calculated; tumour outcome (control, treated, inhibition, significance) (Carcinogen: BENZO[A]PYRENE, 50-32-8, Dose [Inhibitor]: 10 MG IN 0.1 ML ACETONE 3/WK ADMINISTERED SIMULTANEOUSLY WITH CARCINOGEN FOR DURATION OF STUDY (STUDY DURATION: 440 D), Route [Inhibitor]: DERMAL, Species: MOUSE, Strain/Sex: ICR/FEMALE, Target Tissue: Type of Lesion: SKIN: SQUAMOUS CARCINOMA, Dose [Carcinogen]: 5 UG IN 0.1 ML ACETONE 3/WK FOR DURATION OF STUDY): 12/50 (24%), 4/50 (8%), 67%, not calculated; tumour outcome (control, treated, inhibition, significance) (Carcinogen: DIETHYLNITROSAMINE, 55-18-5, N-METHYL-N-NITROSOUREA, 684-93-5, N-BUTYL-N-(4-HYDROXYBUTYL)NITROSAMINE, 3817-11-6, 1, Carcinogen: DIETHYLNITROSAMINE, 55-18-5, N-METHYL-N-NITROSOUREA, 684-93-5, N-BUTYL-N-(4-HYDROXYBUTYL)NITROSAMINE, 3817-11-6, 1, Dose [Inhibitor]: 0, 0.5% IN DIET FOR 24 WK BEGINNING POST CARCINOGEN TREATMENT (STUDY DURATION: 28 WK), Route [Inhibitor]: ORAL, Species: RAT, Strain/Sex: F344/MALE, Target Tissue: Type of Lesion: KIDNEY: ADENOMA, Dose [Carcinogen]: 100 MG/KG DEN IP ONCE, 20 MG/KG MNU IP 2/WK FOR FIRST 2 WK, 0.05% BBN IN DRINKING WATER DURING FIRST 2 WK, 40 MG/KG D, Dose [Carcinogen]: 100 MG/KG DEN IP ONCE, 20 MG/KG MNU IP 2/WK FOR FIRST 2 WK, 0.05% BBN IN DRINKING WATER DURING FIRST 2 WK, 40 MG/KG D): 4/19 (21%), 6/20 (30%), -43%, not significant; tumour outcome (control, treated, inhibition, significance) (Carcinogen: DIETHYLNITROSAMINE, 55-18-5, N-METHYL-N-NITROSOUREA, 684-93-5, N-BUTYL-N-(4-HYDROXYBUTYL)NITROSAMINE, 3817-11-6, 1, Carcinogen: DIETHYLNITROSAMINE, 55-18-5, N-METHYL-N-NITROSOUREA, 684-93-5, N-BUTYL-N-(4-HYDROXYBUTYL)NITROSAMINE, 3817-11-6, 1, Dose [Inhibitor]: 0, 1% IN DIET FOR 24 WK BEGINNING POST CARCINOGEN TREATMENT (STUDY DURATION: 28 WK), Route [Inhibitor]: ORAL, Species: RAT, Strain/Sex: F344/MALE, Target Tissue: Type of Lesion: KIDNEY: ADENOMA, Dose [Carcinogen]: 100 MG/KG DEN IP ONCE, 20 MG/KG MNU IP 2/WK FOR FIRST 2 WK, 0.05% BBN IN DRINKING WATER DURING FIRST 2 WK, 40 MG/KG D, Dose [Carcinogen]: 100 MG/KG DEN IP ONCE, 20 MG/KG MNU IP 2/WK FOR FIRST 2 WK, 0.05% BBN IN DRINKING WATER DURING FIRST 2 WK, 40 MG/KG D): 4/19 (21%), 5/19 (26%), -24%, not significant; tumour outcome (control, treated, inhibition, significance) (Carcinogen: DIETHYLNITROSAMINE, 55-18-5, N-METHYL-N-NITROSOUREA, 684-93-5, N-BUTYL-N-(4-HYDROXYBUTYL)NITROSAMINE, 3817-11-6, 1, Carcinogen: DIETHYLNITROSAMINE, 55-18-5, N-METHYL-N-NITROSOUREA, 684-93-5, N-BUTYL-N-(4-HYDROXYBUTYL)NITROSAMINE, 3817-11-6, 1, Dose [Inhibitor]: 0, 2% IN DIET FOR 24 WK BEGINNING POST CARCINOGEN TREATMENT (STUDY DURATION: 28 WK), Route [Inhibitor]: ORAL, Species: RAT, Strain/Sex: F344/MALE, Target Tissue: Type of Lesion: KIDNEY: ADENOMA, Dose [Carcinogen]: 100 MG/KG DEN IP ONCE, 20 MG/KG MNU IP 2/WK FOR FIRST 2 WK, 0.05% BBN IN DRINKING WATER DURING FIRST 2 WK, 40 MG/KG D, Dose [Carcinogen]: 100 MG/KG DEN IP ONCE, 20 MG/KG MNU IP 2/WK FOR FIRST 2 WK, 0.05% BBN IN DRINKING WATER DURING FIRST 2 WK, 40 MG/KG D): 4/19 (21%), 13/19 (68%), -224%, p<0.01; tumour outcome (control, treated, inhibition, significance) (Carcinogen: METHYLCHOLANTHRENE, 56-49-5, Dose [Inhibitor]: 0, 0.5 ML 1/WK FOR 1 YR BEGINNING POST CARCINOGEN TREATMENT (STUDY DURATION: 24 MO), Route [Inhibitor]: GAVAGE, Species: MOUSE, Strain/Sex: SWISS/FEMALE, Target Tissue: Type of Lesion: LUNG: PAPILLARY ADENOMA AND ADENOCARCINOMA, Dose [Carcinogen]: 0.01 MG ON D 1, 7, 14 AND 21 AFTER BIRTH): 7/11 (64%), 8/12 (67%), -5%, not calculated; tumour outcome (control, treated, inhibition, significance) (Carcinogen: METHYLCHOLANTHRENE, 56-49-5, Dose [Inhibitor]: 0, 0.5 ML 1/WK FOR 1 YR BEGINNING POST CARCINOGEN TREATMENT (STUDY DURATION: 24 MO), Route [Inhibitor]: GAVAGE, Species: MOUSE, Strain/Sex: SWISS/MALE, Target Tissue: Type of Lesion: LIVER: HEPATOCELLULAR ADENOMA AND CARCINOMA, Dose [Carcinogen]: 0.01 MG ON D 1, 7, 14 AND 21 AFTER BIRTH): 3/13 (23%), 2/14 (14%), 39%, not calculated; tumour outcome (control, treated, inhibition, significance) (Carcinogen: METHYLCHOLANTHRENE, 56-49-5, Dose [Inhibitor]: 0, 0.5 ML 1/WK FOR 1 YR BEGINNING POST CARCINOGEN TREATMENT (STUDY DURATION: 24 MO), Route [Inhibitor]: GAVAGE, Species: MOUSE, Strain/Sex: SWISS/MALE, Target Tissue: Type of Lesion: LUNG: PAPILLARY ADENOMA AND ADENOCARCINOMA, Dose [Carcinogen]: 0.01 MG ON D 1, 7, 14 AND 21 AFTER BIRTH): 10/13 (77%), 7/14 (50%), 35%, not calculated
